# Measurements published in ChEMBL document CHEMBL5370543, “Discovery of 6-aryl-2-(3,4,5-trimethoxyphenyl)thiazole[3,2-b][1,2,4]triazoles as potent tubulin polymerization inhibitors” (Eur J Med Chem, 2023).
# Activity calls are given as the source filed them. The rule behind the calls is not given here.
# What was measured:
# SGC-7901 [1] = assay: Induction of cell cycle arrest in human SGC-7901 cells assessed as accumulation at sub-G1 phase at 2 times IC50 incubated for 24 hrs by PI/RNase staining based flow cytometry (reference value: 2 %); type: functional
# SGC-7901 [2] = assay: Induction of cell cycle arrest in human SGC-7901 cells assessed as accumulation at sub-G1 phase at 2 times IC50 incubated for 12 hrs by PI/RNase staining based flow cytometry (reference value: 2 %); type: functional
# SGC-7901 [3] = assay: Induction of cell cycle arrest in human SGC-7901 cells assessed as accumulation at S phase at 2 times IC50 incubated for 48 hrs by PI/RNase staining based flow cytometry (reference value: 46 %); type: functional
# 4T1 [4] = assay: Antitumor activity against mouse 4T1 cells allografted in Balb/c mouse assessed as tumor growth inhibition at 5 mg/kg, iv administered every other day measured for 12 days relative to control; type: functional; details: 4T1, 288 h, time 12 day, read-out: TGI
# 4T1 [5] = assay: Antitumor activity against mouse 4T1 cells allografted in Balb/c mouse assessed as decrease in tumor volume at 20 mg/kg, iv administered every other day measured for 12 days; type: functional, organism-based; details: time 12.0 day
# SGC-7901 [6] = assay: Induction of cell cycle arrest in human SGC-7901 cells assessed as accumulation at S phase at 2 times IC50 incubated for 12 hrs by PI/RNase staining based flow cytometry (reference value: 46 %); type: functional
# 4T1 [7] = assay: Antitumor activity against mouse 4T1 cells allografted in Balb/c mouse assessed as tumor growth inhibition at 20 mg/kg, iv administered every other day measured for 12 days relative to control; type: functional; details: 4T1, 288 h, time 12 day, read-out: TGI
# SGC-7901 [8] = assay: Antiproliferative activity against human SGC-7901 cells assessed as cell growth inhibition incubated for 72 hrs by MTT assay; type: functional, cell-based; details: SGC-7901, 72 h
# SGC-7901 [9] = assay: Induction of cell cycle arrest in human SGC-7901 cells assessed as accumulation at S phase at 2 times IC50 incubated for 72 hrs by PI/RNase staining based flow cytometry (reference value: 46 %); type: functional
# SGC-7901 [10] = assay: Induction of cell cycle arrest in human SGC-7901 cells assessed as accumulation at G2/M phase at 2 times IC50 incubated for 72 hrs by PI/RNase staining based flow cytometry (reference value: 10 %); type: functional
# SGC-7901 [11] = assay: Induction of cell cycle arrest in human SGC-7901 cells assessed as accumulation at S phase at 2 times IC50 incubated for 6 hrs by PI/RNase staining based flow cytometry (reference value: 46 %); type: functional
# HT-1080 = assay: Antiproliferative activity against human HT-1080 cells assessed as cell growth inhibition incubated for 72 hrs by MTT assay; type: functional, cell-based; details: HT-1080, 72 h
# SGC-7901 [12] = assay: Induction of cell cycle arrest in human SGC-7901 cells assessed as accumulation at G0/G1 phase at 2 times IC50 incubated for 12 hrs by PI/RNase staining based flow cytometry (reference value: 42 %); type: functional
# SGC-7901 [13] = assay: Induction of cell cycle arrest in human SGC-7901 cells assessed as accumulation at G2/M phase at 2 times IC50 incubated for 24 hrs by PI/RNase staining based flow cytometry (reference value: 10 %); type: functional
# 4T1 [14] = assay: Antitumor activity against mouse 4T1 cells allografted in Balb/c mouse assessed as tumor weight at 20 mg/kg, iv administered every other day measured after 12 days (reference value: 448 mg); type: functional; details: time 12 day
# SGC-7901 [15] = assay: Induction of cell cycle arrest in human SGC-7901 cells assessed as accumulation at sub-G1 phase at 2 times IC50 incubated for 6 hrs by PI/RNase staining based flow cytometry (reference value: 2 %); type: functional
# [16] = Toxicity in Balb/c mouse allografted with mouse 4T1 cells assessed as decrease in body weight at 20 mg/kg, iv administered every other day measured for 12 days; type: organism-based; details: in vivo, 288 h, time 12 day
# SGC-7901 [17] = assay: Induction of cell cycle arrest in human SGC-7901 cells assessed as accumulation at sub-G1 phase at 2 times IC50 incubated for 72 hrs by PI/RNase staining based flow cytometry (reference value: 2 %); type: functional
# SGC-7901 [18] = assay: Induction of cell cycle arrest in human SGC-7901 cells assessed as accumulation at G0/G1 phase at 2 times IC50 incubated for 24 hrs by PI/RNase staining based flow cytometry (reference value: 42 %); type: functional
# Tubulin (Homo sapiens) [19] = biological target: T1, Tubulin (Homo sapiens) (UniProt P68371+Q9H4B7+P0DPH7+P68366+Q13509+Q71U36+P04350+Q3ZCM7+P07437+P68363+Q9BQE3+Q6PEY2+Q13885+Q9BVA1+Q9BUF5); assay: Disruption of microtubule organization in human SGC-7901 cells assessed as shrinkage of microtubule network around nucleus at 2 times IC50 incubated for 12 hrs by […] based analysis; type: cell-based
# SGC-7901 [20] = assay: Induction of cell cycle arrest in human SGC-7901 cells assessed as accumulation at G2/M phase at 2 times IC50 incubated for 48 hrs by PI/RNase staining based flow cytometry (reference value: 10 %); type: functional
# SGC-7901 [21] = assay: Induction of cell cycle arrest in human SGC-7901 cells assessed as accumulation at sub-G1 phase at 2 times IC50 incubated for 48 hrs by PI/RNase staining based flow cytometry (reference value: 2 %); type: functional
# SGC-7901 [22] = assay: Induction of cell cycle arrest in human SGC-7901 cells assessed as accumulation at S phase at 2 times IC50 incubated for 24 hrs by PI/RNase staining based flow cytometry (reference value: 46 %); type: functional
# 4T1 [23] = assay: Cytotoxicity against mouse 4T1 cells assessed as cell growth inhibition incubated for 72 hrs by MTT assay; type: functional, cell-based; details: 4T1, 72 h
# Tubulin (Homo sapiens) [24] = biological target: T1, Tubulin (Homo sapiens); assay: (§1) Inhibition of tubulin polymerization (unknown origin) by fluorescence based assay; type: protein-complex assay
# Tubulin = assay: as §1; type: protein-complex assay, Homo sapiens
# 4T1 [25] = assay: Antitumor activity against mouse 4T1 cells allografted in Balb/c mouse assessed as tumor weight at 5 mg/kg, iv administered every other day measured after 12 days (reference value: 448 mg); type: functional; details: time 12 day
# [26] = Selectivity index, ratio of IC50 for HUVEC cells to IC50 for human SGC-7901 cells; type: functional
# 4T1 [27] = assay: Antitumor activity against mouse 4T1 cells allografted in Balb/c mouse assessed as tumor weight at 10 mg/kg, iv administered every other day measured after 12 days (reference value: 448 mg); type: functional; details: time 12 day
# 4T1 [28] = assay: Antitumor activity against mouse 4T1 cells allografted in Balb/c mouse assessed as tumor growth inhibition at 10 mg/kg, iv administered every other day measured for 12 days relative to control; type: functional; details: 4T1, 288 h, time 12 day, read-out: TGI
# Tubulin (Homo sapiens) [29] = biological target: T1, Tubulin (Homo sapiens); assay: Binding affinity to tubulin (unknown origin) at colchicine binding site assessed as tubulin-colchicine complex competition rate at 1.25 uM preincubated for 45 mins followed by colchicine addition by fluorescence based assay relative to control; type: protein-complex assay
# SGC-7901 [30] = assay: Induction of cell cycle arrest in human SGC-7901 cells assessed as accumulation at G0/G1 phase at 2 times IC50 incubated for 6 hrs by PI/RNase staining based flow cytometry (reference value: 42 %); type: functional
# SGC-7901 [31] = assay: Induction of cell cycle arrest in human SGC-7901 cells assessed as accumulation at G2/M phase at 2 times IC50 incubated for 12 hrs by PI/RNase staining based flow cytometry (reference value: 10 %); type: functional
# MCF7 = assay: Antiproliferative activity against human MCF7 cells assessed as cell growth inhibition incubated for 72 hrs by MTT assay; type: functional, cell-based; details: MCF7, 72 h
# SGC-7901 [32] = assay: Induction of cell cycle arrest in human SGC-7901 cells assessed as accumulation at G2/M phase at 2 times IC50 incubated for 6 hrs by PI/RNase staining based flow cytometry (reference value: 10 %); type: functional
# [33] = Cytotoxicity against HUVEC cells assessed as cell growth inhibition incubated for 72 hrs by MTT assay; type: toxicity, cell-based; details: human
# SGC-7901 [34] = assay: Induction of cell cycle arrest in human SGC-7901 cells assessed as accumulation at G0/G1 phase at 2 times IC50 incubated for 48 hrs by PI/RNase staining based flow cytometry (reference value: 42 %); type: functional
structure (smiles),measurement,setting,value
COc1cc(-c2nc3scc(-c4cc(Cl)cc(Cl)c4)n3n2)cc(OC)c1OC,Activity,SGC-7901 [1],21%
same,Activity,SGC-7901 [2],17%
same,Activity,SGC-7901 [3],8%
same,inhibition in vivo at 5 mg/kg,4T1 [4],49.2%
same,Activity,4T1 [5],Active
same,Activity,SGC-7901 [6],31%
same,inhibition in vivo at 20 mg/kg,4T1 [7],84%
same,IC50,SGC-7901 [8],210 nM
same,Activity,SGC-7901 [9],3%
same,Activity,SGC-7901 [10],4%
same,Activity,SGC-7901 [11],49%
same,IC50,HT-1080,1180 nM
same,Activity,SGC-7901 [12],21%
same,Activity,SGC-7901 [13],42%
same,Activity,4T1 [14],71.76 mg
same,Activity,SGC-7901 [15],2%
same,Activity,[16],Non-Toxic
same,Activity,SGC-7901 [17],93%
same,Activity,SGC-7901 [18],16%
same,Activity,Tubulin (Homo sapiens) [19],Active
same,Activity,SGC-7901 [20],19%
same,Activity,SGC-7901 [21],69%
same,Activity,SGC-7901 [22],21%
same,IC50,4T1 [23],341 nM
same,inhibition,Tubulin (Homo sapiens) [24],Dose-Dependent Effect
same,IC50,Tubulin,6.87 µM
same,Activity,4T1 [25],227.5 mg
same,Ratio IC50,[26],62.62
same,Activity,4T1 [27],187.74 mg
same,inhibition in vivo at 10 mg/kg,4T1 [28],58.1%
same,Activity,Tubulin (Homo sapiens) [29],37.9%
same,Activity,SGC-7901 [30],36%
same,Activity,SGC-7901 [31],31%
same,IC50,MCF7,2130 nM
same,Activity,SGC-7901 [32],13%
same,IC50 at 72 h,[33],13.2 µM
same,Activity,SGC-7901 [34],4%
